Source: US7045324B2, “Tocopherol associated protein and uses thereof” (Research Development Foundation, priority 2002, dated 2006)

What was measured:
[1] = tested on: tumor cells, normal cells, cells of epithelial or immune origin; conditions: cited from earlier work
MDA-MB-435 cells [2] = assay: Apoptosis (nuclear condensation and fragmentation) of MDA-MB-435 cells transfected with antisense oligomers to TAP; format: cell-based, human; conditions: antisense to N-terminal region of TAP (TAP-38 and TAP-46)
Protocol: Apoptosis was determined by examination of nuclear condensation and fragmentation.
Transient transfection of MDA-MB-435 cells with antisense oligomers to the N-terminal region of TAP (interferes with TAP-38 as well as TAP-46 transcription) blocked the ability of tocopherol compounds, vitamin E succinate and compound #1, to induce apoptosis, showing that TAP-38 and TAP-46 are involved in the ability of vitamin E compounds to inhibit tumor cell growth (FIG. 10).

[3] = tested on: MDA-MB-435 human breast cancer cells; assay: Apoptosis (DAPI staining) of TAP siRNA transfected MDA-MB-435 cells treated with tocopherol-based compounds; format: cell-based; conditions: TAP siRNA for 6 days, then compound for 2 days (α-TEA 20 μg/ml, VES 20 μg/ml, δT3 5 μg/ml)
Protocol: MDA-MD-435 cells at 13.5×10^6/55 cm^2 cell culture dish (100 mm×20 mm; catalog # 430293, Corning Inc., Corning, N.Y.) were transiently transfected with in vitro transcribed TAP siRNA (Silencer siRNA Construction Kit, Ambion) using siPORT Lipid following company instructions (catalog # 4505, Ambion, Austin, Tex.). Cells were incubated overnight in culture media, then washed two times with non-supplemented regular MEM media. Next, the cells were incubated overnight in the presence of siRNA/siPORT Lipid [[…]/16 μl or 16 μl siPORT lipid only (as control)] in 5 ml of serum free media (OPTI-MEMI, catalog # 31985–070, Gibco). SiRNA/siPORT Lipid complex was generated by two steps: 1) 16 μl of siPORT lipid was incubated with 60 μl of OPTI-MEMI media for 30 minutes at room temperature; and 2) 60 μl of siPORT Lipid in OPTI-MEMI was then incubated for 20 minutes with 500 μl of diluted TAP siRNA [or 500 μl media as control (5 μl of 10 μl TAP siRNA in 500 μl of OPTI-MEMI media)]. The transfected cells were then split into 12 wells at 1.5×10^5 cells/well for apoptosis and 55 cm^2 dish at 3.5×10^6 cells/dish for Western immunoblot analyses.
The cells in 55 cm^2 dishes were incubated for 8 hours with culture media followed by treatment with 20 μg/ml of α-TEA in 2% serum treatment media for 15 hours. Cells were collected and fractionated, and the lysates were analyzed for TAP protein levels by Western immunoblotting (FIG. 13A). The cells plated in 12-well plates were incubated overnight in culture media followed by treatment with 20 μg/ml of α-TEA, 20 μg/ml of VES, and 5 μg/ml of RRR-δ-tocotrienol (dt3) and cultured for 2 days. Apoptosis was evaluated by DAPI staining (FIG. 13B).
For example, cells transiently transfected with TAP siRNA for 6 days and then treated with α-TEA, VES, or δT3 were inhibited from induction of apoptosis by approximately 60% in comparison to control cells cultured with the three compounds for two days.

MDA-MB-435 cells [4] = assay: PARP cleavage and c-Jun phosphorylation in MDA-MB-435 cells transfected with antisense or sense oligomers to TAP; format: cell-based, human
Source text: Antisense oligomers to TAP (both TAP-38 and TAP-46), showing that the induction of apoptosis with vitamin E succinate or compound #1 [2,5,7,8-tetramethyl-(2R-(4R,8R,12-trimethyltridecycl) chroman-6-yloxy) acetic acid] to involve tocopherol associated protein.

[5] = tested on: MDA-MB-435 human breast cancer cells; assay: Apoptosis of MDA-MB-435 cells transiently transfected with TAP-38 or TAP-46 cDNA and treated with compound; format: cell-based; conditions: 20 micrograms/ml compound
Source text: Transient transfection of MDA-MB-435 human breast cancer cells with either TAP-38 or TAP-46 enhanced the ability of tocopherol compound #1 [2,5,7,8-tetramethyl-(2R-(4R,8R,12-trimethyltridecycl) chroman-6-yloxy) acetic acid] to induce apoptosis (FIG. 9).

SMILES: Cc1c(C)c2c(c(C)c1O)CC[C@@](C)(CCC[C@H](C)CCC[C@H](C)CCCC(C)C)O2 [RRR-α-tocopherol]
- antiproliferative and proapoptotic activity ([1]; cells of epithelial or immune origin): neither antiproliferative nor proapoptotic biological activity

SMILES: Cc1c(C)c2c(c(C)c1OC(=O)CCC(=O)O)CC[C@@](C)(CCC[C@H](C)CCC[C@H](C)CCCC(C)C)O2 [VES, RRR-α-tocopheryl succinate]
- apoptotic inducing effects on normal cells ([1]; normal cells): no apoptotic inducing effects on normal cells
- apoptosis of tumor cells ([1]; tumor cells): induces tumor cells to undergo apoptosis
- ability to induce apoptosis in cells transfected with antisense oligomers to TAP, vs sense oligomers (MDA-MB-435 cells [2]): blocked
- inhibition of induction of apoptosis by TAP siRNA in comparison to control cells [3]: approximately 60%
- cleavage of poly ADP-ribose polymerase (PARP) in compound-treated cells with antisense vs sense oligomers to TAP (MDA-MB-435 cells [4]): blocked the cleavage
- phosphorylation of c-Jun in compound-treated cells with antisense vs sense oligomers to TAP (MDA-MB-435 cells [4]): inhibited the phosphorylation

SMILES: Cc1c(C)c2c(c(C)c1OCC(=O)O)CC[C@@](C)(CCC[C@H](C)CCC[C@H](C)CCCC(C)C)O2 [compound #1, 2,5,7,8-tetramethyl-(2R-(4R,8R,12-trimethyltridecycl)chroman-6-yloxy) acetic acid]
- ability to induce apoptosis in cells transfected with antisense oligomers to TAP, vs sense oligomers (MDA-MB-435 cells [2]): blocked
- ability to induce apoptosis in cells transfected with either TAP-38 or TAP-46, vs vector control [5]: enhanced
- cleavage of poly ADP-ribose polymerase (PARP) in compound-treated cells with antisense vs sense oligomers to TAP (MDA-MB-435 cells [4]): blocked the cleavage
- phosphorylation of c-Jun in compound-treated cells with antisense vs sense oligomers to TAP (MDA-MB-435 cells [4]): inhibited the phosphorylation

SMILES: Cc1c(C)c2c(c(C)c1OCC(=O)O)CC[C@@](C)(CCC[C@H](C)CCC[C@H](C)CCCC(C)C)O2 [α-TEA]
- inhibition of induction of apoptosis by TAP siRNA in comparison to control cells [3]: approximately 60%

SMILES: CC(C)=CCC/C(C)=C/CC/C(C)=C/CC[C@]1(C)CCc2cc(O)cc(C)c2O1 [δT3, RRR-δ-tocotrienol]
- inhibition of induction of apoptosis by TAP siRNA in comparison to control cells [3]: approximately 60%
